Experimental data taken from patent US8193239B2, “Substituted 1-cyanoethylheterocyclylcarboxamide compounds” (AstraZeneca AB, priority 2009, dated 2012).
Structures can show the parent of a compound that is named as a salt.

The compounds below were run against Recombinant Human (rh) DPP1 (Homo sapiens, UniProt P53634) (assay: Fluorescence Assay for Recombinant Human (rh) DPP1). Conditions: rhDPP1, substrate H-Gly-Arg-AMC, pH5.0, 22° C., pre-incubated 30-60 min; read-out: DPP1 activity, pIC50 (converted).
Format: biochemical
Experimental: Fluorescence Assay for Recombinant Human (rh) DPP1
The activity of DPP1 was determined by measuring the enzymatic release of aminomethyl coumarin (AMC) from the peptide substrate (H-Gly-Arg-AMC), which leads to an increase in fluorescence intensity at λex=350 nm and λem=450 nm. The assay was carried out in black 384 well plates in a final volume of 50 μl at 22° C. The assay conditions contained the following: 25 mM piperazine buffer pH5.0; 50 mM NaCl, 5 mM DTT; 0.01% (v/v) Triton X-100; 100 μM H-Gly-Arg-AMC and rhDPP1 ([…]). […] A standard DPP1 inhibitor (vinyl sulfone, see below, or Example 24 from WO2009/074829) was used as a positive control in the assay. Routinely, inhibitors were pre-incubated with rhDPP1 for 30-60 min prior to the addition of the peptide substrate to start the reaction for a further 60 min at 22° C. After that the plates were immediately read in a fluorescence plate reader using the above emission and excitation wavelengths [modified from Kam, C M, Gotz, M G, Koot, G, McGuire, M J, Thiele, D L, Hudig, D & Powers, J C (2004). Arch Biochem Biophys, 427, 123-134 & McGuire, M J, Lipsky, P E & Thiele, D L (1992). Arch Biochem Biophys, 295, 280-288].

Chain of Recombinant Human (rh) DPP1 (P53634 231-394 limits assumed): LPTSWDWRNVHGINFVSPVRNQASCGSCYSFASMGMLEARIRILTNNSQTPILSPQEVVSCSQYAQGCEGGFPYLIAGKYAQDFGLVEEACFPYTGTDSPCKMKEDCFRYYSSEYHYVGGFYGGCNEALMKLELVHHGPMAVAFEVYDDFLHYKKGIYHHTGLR
Chain of Recombinant Human (rh) DPP1 (P53634 25-134 limits assumed): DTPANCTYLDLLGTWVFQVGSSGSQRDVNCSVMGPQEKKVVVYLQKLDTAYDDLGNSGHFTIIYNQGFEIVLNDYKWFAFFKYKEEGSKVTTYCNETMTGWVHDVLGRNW
Chain of Recombinant Human (rh) DPP1 (P53634 395-463 limits assumed): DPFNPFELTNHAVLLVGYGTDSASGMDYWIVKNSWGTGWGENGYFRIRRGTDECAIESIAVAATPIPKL

Row | IC50 | SMILES
1 | 0.631 nM | N#C[C@H](Cc1ccc(-c2ccc(C(F)(F)F)cc2)cc1)NC(=O)C1(N)CCOCC1 [Example 1, (S)-4-Amino-N-(1-cyano-2-(4′-(trifluoromethyl)biphenyl-4-yl)ethyl)tetrahydro-2H-pyran-4-carboxamide]
2 | 0.794 nM | CCS(=O)(=O)c1ccc(-c2ccc(C[C@@H](C#N)NC(=O)C3(N)CCOCC3)cc2)cc1 [Example 2, (S)-4-Amino-N-(1-cyano-2-(4′-(ethylsulfonyl)biphenyl-4-yl)ethyl)tetrahydro-2H-pyran-4-carboxamide]
3 | 0.398 nM | N#C[C@H](Cc1ccc(-c2ccc(F)cc2)cc1)NC(=O)C1(N)CCOCC1 [Example 4, (S)-4-Amino-N-(1-cyano-2-(4′-fluorobiphenyl-4-yl)ethyl)tetrahydro-2H-pyran-4-carboxamide]
4 | 1 nM | CC(C)S(=O)(=O)c1ccc(-c2ccc(C[C@@H](C#N)NC(=O)C3(N)CCOCC3)cc2)cc1 [Example 5, (S)-4-Amino-N-(1-cyano-2-(4′-(isopropylsulfonyl)biphenyl-4-yl)ethyl)tetrahydro-2H-pyran-4-carboxamide]
5 | 0.398 nM | CS(=O)(=O)Oc1ccc(-c2ccc(C[C@@H](C#N)NC(=O)C3(N)CCOCC3)cc2)cc1 [Example 6, (S)-4′-(2-(4-Aminotetrahydro-2H-pyran-4-carboxamido)-2-cyanoethyl)biphenyl-4-yl methanesulfonate trifluoroacetic acid salt, methanesulfonate trifluoroacetic acid …]
6 | 0.631 nM | N#C[C@H](Cc1ccc(-c2ccc(S(=O)(=O)N3CCC3)cc2)cc1)NC(=O)C1(N)CCOCC1 [Example 7, (S)-4-Amino-N-(2-(4′-(azetidin-1-ylsulfonyl)biphenyl-4-yl)-1-cyanoethyl)tetrahydro-2H-pyran-4-carboxamide trifluoroacetic acid salt]
7 | 0.794 nM | N#Cc1cccc(-c2ccc(C[C@@H](C#N)NC(=O)C3(N)CCOCC3)cc2)c1 [Example 8, (S)-4-Amino-N-(1-cyano-2-(3′-cyanobiphenyl-4-yl)ethyl)tetrahydro-2H-pyran-4-carboxamide]
8 | < 0.316 nM | COCCn1c(=O)sc2ccc(-c3ccc(C[C@@H](C#N)NC(=O)C4(N)CCOCC4)cc3)cc21 [Example 9, (S)-4-Amino-N-(1-cyano-2-(4-(3-(2-methoxyethyl)-2-oxo-2,3-dihydrobenzo[d]thiazol-5-yl)phenyl)ethyl)tetrahydro-2H-pyran-4-carboxamide trifluoroacetic acid salt]
9 | < 0.316 nM | CN1C(=O)COc2ccc(-c3ccc(C[C@@H](C#N)NC(=O)C4(N)CCOCC4)cc3)cc21 [Example 10, (S)-4-Amino-N-(1-cyano-2-(4-(4-methyl-3-oxo-3,4-dihydro-2H-benzo[b][1,4]oxazin-6-yl)phenyl)ethyl)tetrahydro-2H-pyran-4-carboxamide trifluoroacetic acid salt]
10 | < 0.316 nM | COCCCn1c(=O)oc2ccc(-c3ccc(C[C@@H](C#N)NC(=O)C4(N)CCOCC4)cc3)cc21 [Example 11, (S)-4-Amino-N-(1-cyano-2-(4-(3-(3-methoxypropyl)-2-oxo-2,3-dihydrobenzo[d]oxazol-5-yl)phenyl)ethyl)tetrahydro-2H-pyran-4-carboxamide trifluoroacetic acid salt]
11 | 0.501 nM | CS(=O)(=O)Oc1cccc(-c2ccc(C[C@@H](C#N)NC(=O)C3(N)CCOCC3)cc2)c1 [Example 12, (S)-4′-(2-(4-Aminotetrahydro-2H-pyran-4-carboxamido)-2-cyanoethyl)biphenyl-3-yl methanesulfonate]
12 | 0.316 nM | N#C[C@H](Cc1ccc(-c2ccc(F)c(F)c2)cc1)NC(=O)C1(N)CCOCC1 [Example 13, (S)-4-Amino-N-(1-cyano-2-(3′,4′-difluorobiphenyl-4-yl)ethyl)tetrahydro-2H-pyran-4-carboxamide trifluoroacetic acid salt]
13 | 0.126 nM | N#C[C@H](Cc1ccc(-c2ccc3c(c2)CNC3=O)cc1)NC(=O)C1(N)CCOCC1 [Example 15, (S)-4-Amino-N-(1-cyano-2-(4-(1-oxoisoindolin-5-yl)phenyl)ethyl)tetrahydro-2H-pyran-4-carboxamide]
14 | 1 nM | CN1Cc2cc(-c3ccc(C[C@@H](C#N)NC(=O)C4(N)CCOCC4)cc3)ccc2S1(=O)=O [Example 16, (S)-4-Amino-N-{cyano-2-[4-(2-methyl-1,1-dioxido-2,3-dihydro-1,2-benzisothiazol-5-yl)phenyl]ethyl}tetrahydro-2H-pyran-4-carboxamide trifluoroacetic acid salt]
15 | 0.316 nM | Cn1c(=O)oc2ccc(-c3ccc(C[C@@H](C#N)NC(=O)C4(N)CCOCC4)cc3)cc21 [Example 17, (S)-4-amino-N-(1-cyano-2-(4-(3-methyl-2-oxo-2,3-dihydrobenzo[d]oxazol-5-yl)phenyl)ethyl)tetrahydro-2H-pyran-4-carboxamide]
16 | 0.794 nM | Cc1ccc(-c2ccc(C[C@@H](C#N)NC(=O)C3(N)CCOCC3)cc2)cc1C#N [Example 18, (S)-4-Amino-N-(1-cyano-2-(3′-cyano-4′-methylbiphenyl-4-yl)ethyl)tetrahydro-2H-pyran-4-carboxamide trifluoroacetic acid salt]
17 | < 0.316 nM | Cc1cc(-c2ccc(C[C@@H](C#N)NC(=O)C3(N)CCOCC3)cc2)ccc1C#N [Example 19, (S)-4-Amino-N-(1-cyano-2-(4′-cyano-3′-methylbiphenyl-4-yl)ethyl)tetrahydro-2H-pyran-4-carboxamide trifluoroacetic acid salt]
18 | 0.794 nM | COc1ccc(-c2ccc(C[C@@H](C#N)NC(=O)C3(N)CCOCC3)cc2)cc1 [Example 20, (S)-4-Amino-N-(1-cyano-2-(4′-methoxybiphenyl-4-yl)ethyl)tetrahydro-2H-pyran-4-carboxamide]
19 | 0.251 nM | CN1C(=O)Cc2ccc(-c3ccc(C[C@@H](C#N)NC(=O)C4(N)CCOCC4)cc3)cc21 [Example 21, (S)-4-Amino-N-(1-cyano-2-(4-(1-methyl-2-oxoindolin-6-yl)phenyl)ethyl)tetrahydro-2H-pyran-4-carboxamide]
20 | < 0.398 nM | N#Cc1cc(-c2ccc(C[C@@H](C#N)NC(=O)C3(N)CCOCC3)cc2)ccc1F [Example 22, (S)-4-Amino-N-(1-cyano-2-(3′-cyano-4′-fluorobiphenyl-4-yl)ethyl)tetrahydro-2H-pyran-4-carboxamide]
21 | 0.631 nM | CS(=O)(=O)c1cccc(-c2ccc(C[C@@H](C#N)NC(=O)C3(N)CCOCC3)cc2)c1 [Example 23, (S)-4-Amino-N-(1-cyano-2-(3′-(methylsulfonyl)biphenyl-4-yl)ethyl)tetrahydro-2H-pyran-4-carboxamide trifluoroacetic acid salt]
22 | 0.2 nM | COCCn1c(=O)oc2ccc(-c3ccc(C[C@@H](C#N)NC(=O)C4(N)CCOCC4)cc3)cc21 [Example 24, (S)-4-Amino-N-(1-cyano-2-(4-(3-(2-methoxyethyl)-2-oxo-2,3-dihydrobenzo[d]oxazol-5-yl)phenyl)ethyl)tetrahydro-2H-pyran-4-carboxamide trifluoroacetic acid salt]
23 | 1.26 nM | N#C[C@H](Cc1ccc(-c2ccc(C(N)=O)c(F)c2)cc1)NC(=O)C1(N)CCOCC1 [Example 25, (S)-4-Amino-N-(2-(4′-carbamoyl-3′-fluorobiphenyl-4-yl)-1-cyanoethyl)tetrahydro-2H-pyran-4-carboxamide]
24 | 1.26 nM | COc1cc(-c2ccc(C[C@@H](C#N)NC(=O)C3(N)CCOCC3)cc2)ccn1 [Example 26, (S)-4-Amino-N-(1-cyano-2-(4-(2-methoxypyridin-4-yl)phenyl)ethyl)tetrahydro-2H-pyran-4-carboxamide]
25 | 1.58 nM | N#C[C@H](Cc1ccc(-c2ccc(S(=O)(=O)N3CCOCC3)cc2)cc1)NC(=O)C1(N)CCOCC1 [Example 27, (S)-4-Amino-N-(1-cyano-2-(4′-(morpholinosulfonyl)biphenyl-4-yl)ethyl)tetrahydro-2H-pyran-4-carboxamide trifluoroacetic acid salt]
26 | 0.398 nM | CN1C(=O)CSc2cc(-c3ccc(C[C@@H](C#N)NC(=O)C4(N)CCOCC4)cc3)ccc21 [Example 28, (S)-4-Amino-N-(1-cyano-2-(4-(4-methyl-3-oxo-3,4-dihydro-2H-benzo[b][1,4]thiazin-7-yl)phenyl)ethyl)tetrahydro-2H-pyran-4-carboxamide]
27 | 0.631 nM | CN1CCN(S(=O)(=O)c2ccc(-c3ccc(C[C@@H](C#N)NC(=O)C4(N)CCOCC4)cc3)cc2)CC1 [Example 29, (S)-4-Amino-N-(1-cyano-2-(4′-(4-methylpiperazin-1-ylsulfonyl)biphenyl-4-yl)ethyl)tetrahydro-2H-pyran-4-carboxamide]
28 | 5.01 nM | CN1Cc2ccc(-c3ccc(C[C@@H](C#N)NC(=O)C4(N)CCOCC4)cc3)cc2C1=O [Example 30, (S)-4-Amino-N-(1-cyano-2-(4-(2-methyl-3-oxoisoindolin-5-yl)phenyl)ethyl)tetrahydro-2H-pyran-4-carboxamide trifluoroacetic acid salt]
29 | 1.58 nM | CN1Cc2cc(-c3ccc(C[C@@H](C#N)NC(=O)C4(N)CCOCC4)cc3)ccc2C1=O [Example 31, (S)-4-Amino-N-(1-cyano-2-(4-(2-methyl-1-oxoisoindolin-5-yl)phenyl)ethyl)tetrahydro-2H-pyran-4-carboxamide]
